Test results published in patent publication US20230183266A1, “CRYSTALLINE FORMS OF RET INHIBITOR AND PREPARATION THEREOF” (LOXO ONCOLOGY, INC., priority 2021, published 2023).
In brackets after ≈: the same amount, converted by molar mass.

Assays:
Type in all cases: physicochemical
[1] = solid-form stability (thermodynamic stability, form conversion on storage, isolation and drying)
Source text: (§1) In some embodiments, removal of the solvent molecule(s) from selpercatinib in solvated form can provide for selpercatinib Form A.
As noted above, selpercatinib can form solvates; and it can also form metastable solid forms, both of which are generally not stable on drying. […] The solvates and metastable forms usually revert to Form A during isolation and/or drying, although films or amorphous material occasionally form. The chloroform and 1,4-dioxane solvates were stable upon isolation/drying. Thus, one strategy for preparing selpercatinib Form A is to convert amorphous selpercatinib and/or selpercatinib Form B into a solvate and then desolvating the solvate, to afford Form A.
In one preferred embodiment, the Form A material is washed with MTBE or heptane and then dried under vacuum at a temperature of about 40 to about 45° C.
The formation of the solvate appears to remove any dependence on, or effect from, the seed crystal form.

[2] = hygroscopicity of the anhydrous polymorphs; conditions: Form A compared with Form B
Source text: as §1

[3] = solubility of crystalline forms in organic solvents
Source text: Forms A and B have similar solubilities.

Row | Compound | thermodynamic stability ([1]; Form A compared with Form B) | interconversion of polymorphs ([1]; typical storage or preparative conditions) | form conversion on drying of wet cake ([1]; wet cake dried at 45° C., ambient pressure, over several days) | hygroscopicity [2] | solubility in many organic solvents ([3]; 25° C., methyl ethyl ketone (MEK), acetone, many alcohol based solvents) | solubility ([3]; organic solvents: dichloromethane, dimethylsulfoxide, organic solvent or mixture, moderate solubility, 25° C., DCM, DMSO, THF) [mg/mL] | solubility in anisole ([3]; anisole)
1 | COc1ccc(CN2C3CC2CN(c2ccc(-c4cc(OCC(C)(C)O)cn5ncc(C#N)c45)cn2)C3)cn1 [Form A, 6-(2-hydroxy-2-methylpropoxy)-4-(6-(6-((6-methoxypyridin-3-yl)methyl)-3,6-diazabicyclo[3.1.1]heptan-3-yl)pyridin-3-yl)pyrazolo[1,5-a]pyridine-3-carbonitrile] | thermodynamically less stable | do not readily inter-convert | slowly converted the Form A to Form B | slightly more hygroscopic | poor | 3 to 30 (≈ 5.71 to 57.1 mM) | –
2 | COc1ccc(CN2C3CC2CN(c2ccc(-c4cc(OCC(C)(C)O)cn5ncc(C#N)c45)cn2)C3)cn1 [Form B, 6-(2-hydroxy-2-methylpropoxy)-4-(6-(6-((6-methoxypyridin-3-yl)methyl)-3,6-diazabicyclo[3.1.1]heptan-3-yl)pyridin-3-yl)pyrazolo[1,5-a]pyridine-3-carbonitrile] | – | – | – | – | – | – | almost no solubility
